# Source: patent US20220213052A1, “INHIBITORS OF RNA-BINDING PROTEINS, COMPOSITIONS THEREOF, AND THERAPEUTIC USES THEROF” (The University of North Carolina at Chapel Hill, priority 2019, published 2022)
# Columns and labels:
# [1] = target: T1, full-length human HuR protein (Homo sapiens, UniProt Q15717); assay: FP assay of HuR-Msi1 ARE binding inhibition; conditions: HuR-Msi1 ARE interaction; read-out: HuR Ki via FP assay
# T1 construct: full-length human HuR protein was produced by the KU COBRE-PSF Protein Purification Group; made in house
# How it was run: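 Fluorescence polarization competition using full-length human HuR protein and a 3′-fluorescein-labelled 16-nt Msi1 ARE RNA. A fluorescein-labelled degenerate 16-nt RNA served as negative control.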
# [2] = target: T2, RNA-binding protein Lin-28 homolog B (LIN28B) (Homo sapiens, UniProt Q6ZN17); assay: LIN28B FP assay
# T2 sequence (Q6ZN17 1-250): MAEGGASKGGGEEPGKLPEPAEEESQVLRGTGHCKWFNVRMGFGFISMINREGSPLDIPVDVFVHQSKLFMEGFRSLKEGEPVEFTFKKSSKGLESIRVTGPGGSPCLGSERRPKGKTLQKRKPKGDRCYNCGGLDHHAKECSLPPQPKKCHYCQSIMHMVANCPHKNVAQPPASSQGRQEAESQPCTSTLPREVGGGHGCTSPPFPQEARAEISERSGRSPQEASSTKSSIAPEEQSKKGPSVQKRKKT
# [3] = target: T3, HuR-bound target mRNAs in MDA-MB-231 cells (Homo sapiens, UniProt Q15717); assay: Ribonucleoprotein immunoprecipitation (RNP-IP) pull-down assay; type: cell-based; conditions: 10 μM
# T3 construct: endogenous in cells; host or cells: MDA-MB-231
# Procedure: Pull-down Assay #2—Ribonuleoprotein Immunoprecipitation (RNP-IP): Cells with HuR overexpression were treated with compounds, then the cell cytoplasmic lysates collected using NE-PER Nuclear and Cytoplasmic Extraction Kit (Thermo Scientific), then the cell cytoplasmic lysates incubated with anti-HuR antibody, and subsequently Protein G agarose beads (from Roche) added to pull down HuR protein. The HuR-bound target mRNAs pulled down were measured by qRT-PCR using a reported method (Ji, Q., et al., MicroRNA miR-34 inhibits human pancreatic cancer tumor-initiating cells. PLoS One, 2009. 4(8): p. e6816, incorporated herein by reference). Mouse IgG will be used as negative control. Compounds of the present technology block the target mRNAs pulled down by HuR antibody.
# [4] = test system: MDA-MB-231 HuR knockout clones (HuR KO1 and HuR KO2); assay: Cytotoxicity against HuR knockout clones of MDA-MB-231; type: cell-based; conditions: HuR KO1 and HuR KO2 vs MDA-MB-231 and sgControl
# Procedure: The cytotoxicity of various compounds of the present technology in several cancer cell lines (pancreatic cancer cell line MIAPaCa-2, triple-negative breast cancer cell line MDA-MB-231, and colon cancer cell lines HCT116, HCT116 β/W, and RKO) was assessed by a cytotoxicity assay. Cells were seeded in 96-well culture plates (3,000-5,000 cells/well) and treated with titrated compounds in triplicate. After 96 h incubation, cell growth medium was removed and proliferation reagent WST-8 (Sigma) was added to each well and incubated at 37° C. for 1-3 h. Absorbance was then measured with a plate reader at 450 nm with correction at 650 nm. The results were expressed as the percentage of absorbance of treated wells versus that of vehicle control. IC50, the drug concentration causing 50% growth inhibition, was calculated via sigmoid curve fitting using GraphPad Prism 5.0. The results for those compounds tested against MIAPaCa-2 and MDA-MB-231 are provided in Table 1; the results for those compounds tested against colon cancer cell lines HCT116, HCT116 β/W, and RKO are provided in Table 3.
# The cytotoxicity of KH-39 and KH-58 against HuR knockout clones was probed by the same assay as described above. […]
# Musashi 2 (Msi2) = Musashi 2 (Msi2) (Homo sapiens, UniProt Q96DH6); assay: Msi2 FP assay; type: binding; conditions: cell marked (RRM1), read-out: Msi2 (Ki) (RRM1)
# Sequence of Musashi 2 (Msi2) (Q96DH6 whole entry, species assumed): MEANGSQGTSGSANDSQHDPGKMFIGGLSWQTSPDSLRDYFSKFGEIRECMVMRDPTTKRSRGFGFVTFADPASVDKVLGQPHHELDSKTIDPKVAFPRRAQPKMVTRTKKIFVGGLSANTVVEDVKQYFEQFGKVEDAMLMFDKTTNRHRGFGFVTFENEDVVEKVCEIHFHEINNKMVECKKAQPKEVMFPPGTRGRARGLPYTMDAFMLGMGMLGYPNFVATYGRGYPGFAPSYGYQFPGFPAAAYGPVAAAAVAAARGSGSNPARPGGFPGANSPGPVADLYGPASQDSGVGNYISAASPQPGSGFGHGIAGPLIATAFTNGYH
# T3 sequence (Q15717 2-326 limits assumed): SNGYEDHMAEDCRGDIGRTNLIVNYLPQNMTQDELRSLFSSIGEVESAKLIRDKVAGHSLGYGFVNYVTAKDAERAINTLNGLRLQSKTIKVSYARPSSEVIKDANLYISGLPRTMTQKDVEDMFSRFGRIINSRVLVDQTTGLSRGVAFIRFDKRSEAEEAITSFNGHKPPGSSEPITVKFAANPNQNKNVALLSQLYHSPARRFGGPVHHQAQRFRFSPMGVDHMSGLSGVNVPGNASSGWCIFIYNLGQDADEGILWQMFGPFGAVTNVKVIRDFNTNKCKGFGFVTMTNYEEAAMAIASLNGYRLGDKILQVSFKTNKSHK
# T1 sequence (Q15717 whole entry): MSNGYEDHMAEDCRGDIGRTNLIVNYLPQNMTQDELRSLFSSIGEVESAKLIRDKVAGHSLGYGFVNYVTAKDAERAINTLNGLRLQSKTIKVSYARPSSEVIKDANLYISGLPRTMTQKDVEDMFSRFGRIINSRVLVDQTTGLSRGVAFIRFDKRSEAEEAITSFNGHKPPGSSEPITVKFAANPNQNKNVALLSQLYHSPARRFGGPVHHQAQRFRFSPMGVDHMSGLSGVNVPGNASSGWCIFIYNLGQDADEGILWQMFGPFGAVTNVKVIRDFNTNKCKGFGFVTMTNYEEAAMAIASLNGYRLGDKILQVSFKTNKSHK
smiles,measurement,setting,value
"CC(C)(C)c1ccc(C(=O)Nc2ccc3[nH]c(C(=O)NO)cc3c2)cc1 [KH-39, 5-(4-(tert-butyl)benzamido)-N-hydroxy-1H-indole-2-carboxamide]",Ki,[1],0.65 µM
same,Ki,[2],> 20 µM
same,HuR pull-down of target mRNAs,[3],at least partially block HuR pull-down of target mRNAs
same,IC50 of HuR KO clones versus parental cells and vector control cells,[4],two to three folds higher IC50 values
same,Ki,Musashi 2 (Msi2),3.15 µM
